Experimental data reported in patent US6353007B1, “Substituted 1-(4-aminophenyl)indoles and their use as anti-inflammatory agents” (Boehringer Ingelheim Pharmaceuticals, Inc., priority 2000, dated 2002).
pIC50: −log10 of the molar value.

Tested on: IL-2 promoter/enhancer
Experiment: IL-2 promoter assay (luciferase reporter, J.1F/C6 Jurkat cells, ionomycin and PMA induction)
Assay type: cell-based
Settings: Homo sapiens; J.1F/C6 Jurkat cell line; induction with ionomycin and PMA; read-out: IC50, inhibition of luciferase activity
Description: The IL-2 promoter assay measures transcriptional activation of a luciferase reporter gene which has been placed under control of the IL-2 promoter/enhancer. All the known regulatory features of the IL-2 gene are contained within a ˜300 bp sequence immediately upstream of the open reading frame. The region −328 to +35 relative to the transcription start site of the IL-2 gene is obtained by […] of human genomic DNA and is subcloned into the promoterless luciferase reporter vector pGL2-Basic (Promega). The resulting construct, pIL2P-luc, and a vector containing a neomycin resistance gene, pcDNA/Neo (Invitrogen), are linearized and stably transfected into Jurkat cells (a human T cell line) by electroporation.
For screening compounds, the cells are pelleted by centrifugation, washed once with PBS, resuspended in RPMI (phenol red-free) containing 5% FBS, and dispensed into 96-well, white microtiter plates (Packard) at 50,000 cells/well. The cells are pre-incubated with compounds (1 μg/ml) for 15 min prior to addition of ionomycin (1 μg/ml) and PMA (10 ng/ml) in a final volume of 100 μl. Following a 5 hr incubation at 37° C. in a humidified incubator, 100 μl of Luc-Lite lysis buffer/luciferase assay buffer (Promega) is added and luminescence measured using a Packard TopCount scintillation counter/luminometer.

Work on `C=CC[C@@H]1/C=C(\C)C[C@H](C)C[C@H](OC)[C@H]2O[C@@](O)(C(=O)C(=O)N3CCCC[C@H]3C(=O)O[C@H](/C(C)=C/[C@@H]3CC[C@@H](O)[C@H](OC)C3)[C@H](C)[C@@H](O)CC1=O)[C@H](C)C[C@@H]2OC` [FK506] yielded a pIC50 of 9.52.
